According to patent US4736045A, “Process for fluorinating ethers” (priority 1983, dated 1988):

Assay: Critical temperature and normal boiling point of heat pump working fluids
Format: physicochemical
Settings: working fluid in a heat pump (TC = 150° C., TE = 100° C.)

| Structure (SMILES) | critical temperature | normal boiling point |
| --- | --- | --- |
| COCC(F)(F)C(F)C(F)(F)F (stereo not shown) [1.1.1.2.3.3. hexafluoro butyl methyl ether] | 236 °C | 87 °C |
| FC(F)(F)C(F)(F)C(F)(F)C1(F)OC(F)(F)C(F)(F)C1(F)F (stereo not shown) [perfluoro-2-propyloxolane] | 206 °C | 79 °C |
